Calls of active or inactive are those of the source.

Series [1] concerns BaF3. Kind of series: cells. The following applies: Mus musculus, BaF3, 72 h.
For series [2], the system named is BaF3. Kind of series: cells. The following applies: Mus musculus, BaF3, 72 h. The source holds these as a separate data set.
Series [3] concerns BaF3. Kind of series: cells. The note with it: Mus musculus, BaF3, 72 h. The source holds these as a separate data set.
The target in series [4] is ALK tyrosine kinase receptor (Homo sapiens, UniProt Q9UM73). It is filed as cell-based, Sf9.
Series [5] relates to BaF3. The experiment in a line: Cytotoxicity against mouse BaF3 cells harboring crizotinib resistant NPM/ALK I1171N mutant assessed as inhibition of cell proliferation incubated for 72 hrs by MTS assay. It is filed as functional, cell-based. The note with it: BaF3, 72 h. For orientation: Formazan colour is commonly taken as a measure of viable cells.
In series [6] the test system is KARPAS-299. Kind of series: Antitumor activity against crizotinib-resistant human KARPAS-299 cells harboring L1196Q mutant xenografted in nude mouse assessed as tumor growth inhibition at 100 mg/kg, po administered twice daily for 24 days. The class given is functional, organism-based. The note with it: time 24.0 day. (In general: A xenograft is tissue or cells of one species grown in another, often human tumour cells in immunodeficient mice.)

In series [7] the target is Vascular endothelial growth factor receptor 2 (Homo sapiens) (UniProt P35968). The experiment in a line: Inhibition of recombinant VEGFR2 (unknown origin) at 10 uM by kinase selectivity assay relative to control.
Series [8] has as its system KARPAS-299. Kind of series: Antiproliferative activity against NPM-ALK positive human KARPAS-299 cells assessed as inhibition of cell growth incubated for 72 hrs by MTS assay. The class given is functional, cell-based. The note with it: KARPAS-299, 72 h.
A further series relates to HL-60. The experiment in a line: Antiproliferative activity against NPM-ALK negative human HL-60 cells assessed as inhibition of cell growth incubated for 72 hrs by MTS assay. The class given is functional, cell-based. The note with it: HL-60, 72 h.
Series [9] is described as follows: Antiproliferative activity against NPM-ALK positive human SUPM2 cells assessed as inhibition of cell growth incubated for 72 hrs by MTS assay. It is filed as functional, cell-based. The note with it: SUP-M2, 72 h.
Series [10] concerns SUPM2. Kind of series: Antiproliferative activity against human SUPM2 cells harboring crizotinib resistant ALK S1206C mutant assessed as inhibition of cell growth at 0.1 to 10 uM incubated for 72 hrs by MTS assay. The class given is functional, cell-based. The following applies: dose 0.1-10 µM.
In series [11] the target is Epidermal growth factor receptor (Homo sapiens) (UniProt P00533). Kind of series: Inhibition of recombinant EGFR (unknown origin) at 10 uM by kinase selectivity assay relative to control.
Another series concerns SU-DHL-1. The experiment in a line: Antiproliferative activity against NPM-ALK positive human SU-DHL-1 cells assessed as inhibition of cell growth incubated for 72 hrs by MTS assay. The class given is functional, cell-based. The note with it: SU-DHL-1, 72 h.
Series [12] relates to KARPAS-299. The experiment in a line: Antitumor activity against human KARPAS-299 cells xenografted in nude mouse assessed as tumor growth inhibition at 100 mg/kg, po administered twice daily for 24 days. It is filed as functional. The following applies: time 24 day. On the set-up: scale not given: the % may be the effect or the level left.
Series [13] in a line: Tmax in po dosed nude mouse. It is filed as ADME, organism-based. The note with it: in vivo.
The nature of series [14]: Half-life in po dosed nude mouse. It is filed as ADME, organism-based. The following applies: in vivo.
The test system of series [15] is SUPM2. The experiment in a line: Antiproliferative activity against human SUPM2 cells harboring crizotinib resistant ALK […] mutant assessed as inhibition of cell growth at 0.1 to 10 uM incubated for 72 hrs by MTS assay. It is filed as functional, cell-based. The note with it: dose 0.1-10 µM.
The target in series [16] is Fibroblast growth factor receptor 1 (Homo sapiens) (UniProt P11362). The experiment in a line: Inhibition of recombinant FGFR1 (unknown origin) at 10 uM by kinase selectivity assay relative to control.
In series [17] the test system is BaF3. Kind of series: Cytotoxicity against mouse BaF3 cells harboring crizotinib resistant NPM/ALK C1156Y mutant assessed as inhibition of cell proliferation incubated for 72 hrs by MTS assay. The class given is functional, cell-based. The note with it: BaF3, 72 h.
For series [18], the system named is SUPM2. The class given is functional, cell-based. The following applies: Homo sapiens, dose 0.1-10 µM, time 72.0 hrs.
Series [19] concerns KARPAS-299. The experiment in a line: Antiproliferative activity against human KARPAS-299 cells harboring crizotinib resistant ALK L1196Q mutant assessed as inhibition of cell growth at 0.1 to 10 uM incubated for 72 hrs by MTS assay. It is filed as functional, cell-based. The note with it: dose 0.1-10 µM.
Series [20] deals with Insulin-like growth factor 1 receptor (Homo sapiens) (UniProt P08069). Kind of series: Inhibition of recombinant IGF1R (unknown origin) at 10 uM by kinase selectivity assay relative to control.
Series [21] deals with BaF3. Kind of series: Cytotoxicity against mouse BaF3 cells harboring crizotinib resistant NPM/ALK F1174L mutant assessed as inhibition of cell proliferation incubated for 72 hrs by MTS assay. The following applies: BaF3, 72 h. It is filed as functional, cell-based.

Sequence of ALK tyrosine kinase receptor (Q9UM73 whole entry): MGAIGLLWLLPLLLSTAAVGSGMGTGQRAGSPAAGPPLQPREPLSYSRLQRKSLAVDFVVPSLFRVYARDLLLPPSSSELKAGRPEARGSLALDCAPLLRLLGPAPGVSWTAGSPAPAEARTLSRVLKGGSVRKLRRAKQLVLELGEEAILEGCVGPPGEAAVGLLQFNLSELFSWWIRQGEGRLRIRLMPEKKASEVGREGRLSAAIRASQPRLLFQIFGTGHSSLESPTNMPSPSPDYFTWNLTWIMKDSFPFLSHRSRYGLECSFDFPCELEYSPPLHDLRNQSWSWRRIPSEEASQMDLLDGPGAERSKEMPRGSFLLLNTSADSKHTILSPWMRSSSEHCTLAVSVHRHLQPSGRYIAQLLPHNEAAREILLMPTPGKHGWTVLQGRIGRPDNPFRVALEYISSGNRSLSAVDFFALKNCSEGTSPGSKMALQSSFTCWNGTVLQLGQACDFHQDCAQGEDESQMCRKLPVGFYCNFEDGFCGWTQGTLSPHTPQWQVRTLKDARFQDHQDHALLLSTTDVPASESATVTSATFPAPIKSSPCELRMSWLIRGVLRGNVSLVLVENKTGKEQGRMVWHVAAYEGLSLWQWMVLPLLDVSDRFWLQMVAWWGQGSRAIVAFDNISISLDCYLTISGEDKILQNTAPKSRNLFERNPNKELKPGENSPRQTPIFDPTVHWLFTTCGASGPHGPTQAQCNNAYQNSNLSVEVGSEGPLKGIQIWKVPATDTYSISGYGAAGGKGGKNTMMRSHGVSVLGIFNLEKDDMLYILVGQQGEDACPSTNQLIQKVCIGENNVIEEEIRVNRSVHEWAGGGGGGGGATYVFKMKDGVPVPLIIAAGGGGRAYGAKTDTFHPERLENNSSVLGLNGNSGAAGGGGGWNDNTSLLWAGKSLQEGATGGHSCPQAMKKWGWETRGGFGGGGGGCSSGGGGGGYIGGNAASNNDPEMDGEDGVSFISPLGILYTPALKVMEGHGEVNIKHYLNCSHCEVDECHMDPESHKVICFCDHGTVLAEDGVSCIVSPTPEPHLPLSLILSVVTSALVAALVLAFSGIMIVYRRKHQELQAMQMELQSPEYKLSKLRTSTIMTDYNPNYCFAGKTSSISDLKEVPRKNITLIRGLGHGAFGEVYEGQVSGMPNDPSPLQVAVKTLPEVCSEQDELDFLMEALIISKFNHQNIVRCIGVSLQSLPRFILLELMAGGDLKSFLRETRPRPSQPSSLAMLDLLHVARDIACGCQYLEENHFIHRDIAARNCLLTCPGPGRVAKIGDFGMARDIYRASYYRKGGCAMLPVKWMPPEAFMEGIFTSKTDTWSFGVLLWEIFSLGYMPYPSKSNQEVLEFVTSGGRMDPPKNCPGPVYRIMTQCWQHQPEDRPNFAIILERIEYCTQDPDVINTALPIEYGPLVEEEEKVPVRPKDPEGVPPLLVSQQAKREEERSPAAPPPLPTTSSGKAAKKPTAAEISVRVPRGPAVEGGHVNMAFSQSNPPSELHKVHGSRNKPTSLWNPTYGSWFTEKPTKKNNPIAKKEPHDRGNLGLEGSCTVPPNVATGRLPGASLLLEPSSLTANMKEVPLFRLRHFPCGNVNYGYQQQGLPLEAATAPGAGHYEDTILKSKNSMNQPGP
Sequence of Epidermal growth factor receptor (Homo sapiens) (P00533 whole entry): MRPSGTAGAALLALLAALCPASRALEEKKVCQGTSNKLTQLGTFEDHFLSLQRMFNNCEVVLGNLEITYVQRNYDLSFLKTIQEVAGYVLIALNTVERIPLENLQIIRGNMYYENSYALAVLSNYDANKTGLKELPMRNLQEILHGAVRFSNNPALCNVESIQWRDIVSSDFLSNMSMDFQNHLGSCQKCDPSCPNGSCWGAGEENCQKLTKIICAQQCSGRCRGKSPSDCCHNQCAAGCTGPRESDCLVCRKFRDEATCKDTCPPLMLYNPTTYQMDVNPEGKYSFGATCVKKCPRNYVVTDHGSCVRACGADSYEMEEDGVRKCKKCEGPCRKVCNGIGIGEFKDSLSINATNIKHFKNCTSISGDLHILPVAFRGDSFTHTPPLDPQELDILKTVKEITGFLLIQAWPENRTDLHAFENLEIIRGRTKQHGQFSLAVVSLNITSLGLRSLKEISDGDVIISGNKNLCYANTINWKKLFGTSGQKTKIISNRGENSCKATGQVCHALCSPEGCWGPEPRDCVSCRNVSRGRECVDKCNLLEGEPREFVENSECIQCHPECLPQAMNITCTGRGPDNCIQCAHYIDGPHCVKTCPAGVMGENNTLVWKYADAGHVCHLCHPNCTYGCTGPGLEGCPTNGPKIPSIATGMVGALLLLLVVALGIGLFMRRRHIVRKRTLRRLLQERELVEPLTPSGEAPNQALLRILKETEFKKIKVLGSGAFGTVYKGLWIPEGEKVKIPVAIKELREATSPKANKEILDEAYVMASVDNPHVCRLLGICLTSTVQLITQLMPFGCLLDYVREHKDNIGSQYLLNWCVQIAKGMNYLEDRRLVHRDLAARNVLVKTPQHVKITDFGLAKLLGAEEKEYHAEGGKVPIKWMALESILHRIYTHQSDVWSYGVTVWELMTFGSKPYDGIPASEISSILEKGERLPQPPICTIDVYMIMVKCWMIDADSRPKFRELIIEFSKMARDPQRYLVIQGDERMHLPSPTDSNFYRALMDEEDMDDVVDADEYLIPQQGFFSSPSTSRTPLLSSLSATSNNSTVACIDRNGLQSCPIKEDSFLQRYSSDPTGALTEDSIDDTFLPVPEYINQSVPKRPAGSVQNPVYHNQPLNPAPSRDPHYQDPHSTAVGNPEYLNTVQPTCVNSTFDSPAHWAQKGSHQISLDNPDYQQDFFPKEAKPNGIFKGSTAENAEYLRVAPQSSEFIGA
Sequence of Vascular endothelial growth factor receptor 2 (Homo sapiens) (P35968 whole entry): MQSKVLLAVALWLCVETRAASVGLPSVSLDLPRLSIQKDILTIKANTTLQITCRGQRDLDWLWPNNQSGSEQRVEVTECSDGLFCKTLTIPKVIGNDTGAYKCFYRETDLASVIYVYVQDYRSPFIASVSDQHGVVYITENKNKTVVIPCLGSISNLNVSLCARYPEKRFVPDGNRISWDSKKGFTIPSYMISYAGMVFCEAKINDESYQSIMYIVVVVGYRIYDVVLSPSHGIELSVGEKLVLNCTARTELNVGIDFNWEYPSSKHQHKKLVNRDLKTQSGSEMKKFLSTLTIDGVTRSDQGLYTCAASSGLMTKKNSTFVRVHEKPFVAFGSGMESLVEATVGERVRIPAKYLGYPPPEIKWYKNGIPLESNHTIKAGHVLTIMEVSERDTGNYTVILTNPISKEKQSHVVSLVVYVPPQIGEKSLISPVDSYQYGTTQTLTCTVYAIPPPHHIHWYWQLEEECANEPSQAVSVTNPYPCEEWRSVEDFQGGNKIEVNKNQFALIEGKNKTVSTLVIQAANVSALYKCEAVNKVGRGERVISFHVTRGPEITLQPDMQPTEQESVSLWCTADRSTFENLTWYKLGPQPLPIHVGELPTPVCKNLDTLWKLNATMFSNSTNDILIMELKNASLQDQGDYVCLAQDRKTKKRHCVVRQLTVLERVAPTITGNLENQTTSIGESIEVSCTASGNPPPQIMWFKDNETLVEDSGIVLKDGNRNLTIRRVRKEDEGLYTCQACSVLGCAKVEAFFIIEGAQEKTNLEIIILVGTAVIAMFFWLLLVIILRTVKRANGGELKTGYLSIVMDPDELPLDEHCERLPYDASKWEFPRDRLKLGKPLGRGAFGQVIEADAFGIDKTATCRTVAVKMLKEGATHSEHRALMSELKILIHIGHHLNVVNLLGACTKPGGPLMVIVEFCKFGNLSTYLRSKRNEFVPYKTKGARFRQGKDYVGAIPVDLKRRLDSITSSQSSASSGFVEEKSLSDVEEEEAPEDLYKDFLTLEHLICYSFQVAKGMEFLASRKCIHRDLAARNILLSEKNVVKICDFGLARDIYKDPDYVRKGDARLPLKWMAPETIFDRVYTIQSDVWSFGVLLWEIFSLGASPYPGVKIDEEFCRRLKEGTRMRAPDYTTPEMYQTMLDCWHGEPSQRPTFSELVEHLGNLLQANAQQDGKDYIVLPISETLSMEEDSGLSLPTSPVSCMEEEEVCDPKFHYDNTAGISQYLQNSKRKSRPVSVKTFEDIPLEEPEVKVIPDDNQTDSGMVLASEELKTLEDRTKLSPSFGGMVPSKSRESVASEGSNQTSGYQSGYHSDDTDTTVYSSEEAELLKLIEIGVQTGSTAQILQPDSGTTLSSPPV
Sequence of Fibroblast growth factor receptor 1 (Homo sapiens) (P11362 22-822 limits assumed): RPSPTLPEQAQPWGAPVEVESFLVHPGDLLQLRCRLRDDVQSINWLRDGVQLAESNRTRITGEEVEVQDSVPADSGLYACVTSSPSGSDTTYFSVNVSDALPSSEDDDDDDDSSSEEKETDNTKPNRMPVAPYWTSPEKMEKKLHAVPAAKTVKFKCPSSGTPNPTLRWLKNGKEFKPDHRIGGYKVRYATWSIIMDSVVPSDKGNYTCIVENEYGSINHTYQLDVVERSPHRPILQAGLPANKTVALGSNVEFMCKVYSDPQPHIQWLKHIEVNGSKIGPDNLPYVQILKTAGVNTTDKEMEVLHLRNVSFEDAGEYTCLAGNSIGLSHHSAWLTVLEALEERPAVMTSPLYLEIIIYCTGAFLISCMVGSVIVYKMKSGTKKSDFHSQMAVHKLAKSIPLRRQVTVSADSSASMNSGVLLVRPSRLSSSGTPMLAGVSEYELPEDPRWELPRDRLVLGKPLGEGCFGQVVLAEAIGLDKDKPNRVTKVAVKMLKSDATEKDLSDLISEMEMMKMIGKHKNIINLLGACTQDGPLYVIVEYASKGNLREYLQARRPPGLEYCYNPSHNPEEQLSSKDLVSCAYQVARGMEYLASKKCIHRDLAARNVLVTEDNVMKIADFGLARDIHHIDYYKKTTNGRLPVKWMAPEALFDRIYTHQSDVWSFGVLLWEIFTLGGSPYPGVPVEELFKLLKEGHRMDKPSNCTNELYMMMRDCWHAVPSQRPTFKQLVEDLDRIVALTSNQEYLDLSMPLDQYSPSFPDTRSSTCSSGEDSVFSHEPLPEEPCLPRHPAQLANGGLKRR

For `COc1ccc(/C=C/c2ccnc3[nH]c4ccc(-c5ccc(N6CCN(C)CC6)cc5)cc4c23)cc1`, the IC50 with BaF3 [1] was found to be 4.1 µM; with BaF3 [2] it was 1.6 µM; in the series on BaF3 [3], 0.6 µM.

In [4], `COc1ccc(-c2ccnc3[nH]c4ccccc4c23)cc1` came in with an IC50 greater than 10 µM.

Consider `CN1CCN(c2ccc(-c3ccc4[nH]c5nccc(/C=C/c6cccc(F)c6)c5c4c3)cc2)CC1`, for which the values for the IC50 with BaF3 [1], in the series with BaF3 [2] and in the series on BaF3 [3] were 9.5 µM, 1.8 µM and 2.7 µM, respectively.

In the case of `Cc1cc(OCc2ccc(-c3ccnc4[nH]c5ccc(-c6ccc(N7CCN(C)CC7)cc6)cc5c34)cc2)ccc1Cl`, the IC50 with BaF3 [1], in the series on BaF3 [2] and with BaF3 [3] was greater than 25 µM in each case.

Turning to `CN1CCN(c2ccc(-c3ccc4[nH]c5nccc(/C=C/c6ccccc6)c5c4c3)cc2)CC1`, the IC50 came out at 1.1 µM in the series on BaF3 [1], 1.5 µM in the series on BaF3 [2] and 1.6 µM with BaF3 [3].

As to `CN1CCN(c2ccc(-c3ccc4[nH]c5nccc(/C=C/c6ccccc6F)c5c4c3)cc2)CC1`, the IC50 in the series with BaF3 [1] is 5.1 µM; in the series with BaF3 [2], 1.6 µM; with BaF3 [3], 1.9 µM.

Regarding `CN1CCN(c2ccc(-c3ccc4[nH]c5nccc(-c6ccc(-c7cccc8ccccc78)cc6)c5c4c3)cc2)CC1`, the IC50 in the series with BaF3 [1] worked out at 1 µM; with BaF3 [2] it was 0.5 µM; with BaF3 [3], 0.4 µM.

In [4], `CN(C)/C=C/C(=O)c1ccc2[nH]c3nccc(-c4ccc(Cc5ccccc5)cc4)c3c2c1` gave an IC50 greater than 10 µM.

For `COc1cc(C(O)c2ccccc2)c(O)cc1-c1ccnc2[nH]c3ccc(-c4ccc(N5CCN(C)CC5)cc4)cc3c12` (stereo not given), in series [4], the IC50 is greater than 10 µM.

`CCN(CC)CCSCC(=O)c1ccc2[nH]c3nccc(Cl)c3c2c1` returned an IC50 in [4] greater than 10 µM.

Consider `CN1CCN(c2ccc(-c3ccc4[nH]c5nccc(-c6ccc(-c7ccccc7)cc6)c5c4c3)cc2)CC1`, for which the IC50 in the series on BaF3 [1] is greater than 25 µM; with BaF3 [2], 2.8 µM; in the series with BaF3 [3], 4.3 µM.

With `COC(=O)c1cc(-c2ccnc3[nH]c4ccc(-c5ccc(N6CCN(C)CC6)cc5)cc4c23)ccc1Cc1ccccc1`, the IC50 in series [4] is greater than 10 µM.

In the case of `COc1cc(-c2ccnc3[nH]c4ccc(-c5ccc(N6CCN(C)CC6)cc5)cc4c23)c(OC)cc1Cc1ccccc1`, the values for the IC50 in the series on BaF3 [1], with BaF3 [2] and in the series with BaF3 [3] were 0.8 µM, 0.5 µM and 0.8 µM, respectively.

Molecule `O=[N+]([O-])c1ccccc1Nc1ccnc2[nH]c3ccccc3c12` returned an IC50 in series [4] greater than 10 µM.

In series [4], `C#Cc1ccnc2[nH]c3ccc(-c4ccc(N5CCN(C)CC5)cc4)cc3c12` had an IC50 greater than 10 µM.

With `C[N+]1(C)CCN(c2ccc(-c3ccc4[nH]c5nccc(C#Cc6ccccc6C(F)(F)F)c5c4c3)cc2)CC1`, the IC50 in the series with BaF3 [1] worked out at 13 µM; in the series on BaF3 [2], 2.1 µM; in the series with BaF3 [3] it was 2.6 µM.

As to `CN1CCN(c2ccc(-c3ccc4[nH]c5nccc(-c6cccc(-c7ccccc7)c6)c5c4c3)cc2)CC1`, the IC50 came to 2.7 µM in the series with BaF3 [1], 1.9 µM in the series with BaF3 [2] and 1.8 µM with BaF3 [3].

In [4], `c1ccc(Cc2ccc(-c3ccnc4[nH]c5ccc(-c6ccc(N7CCN(Cc8cccnc8)CC7)cc6)cc5c34)cc2)cc1` returned an IC50 greater than 10 µM.

Consider `CN1CCN(c2ccc(-c3ccc4[nH]c5nccc(-c6ccc(Cc7ccccc7)cc6)c5c4c3)cc2)CC1`, for which the IC50 in the series with BaF3 [1] is 8.7 µM; in the series with BaF3 [5] it was 1.9 µM; in the series on KARPAS-299 [8] it was 0.7 µM; in the series on HL-60, 17 µM; in [9], 1.1 µM; in the series with SU-DHL-1, 0.8 µM. Further, the IC50 was 1.3 µM in the series on BaF3 [17] and 2.4 µM with BaF3 [21]. Further, the outcome in the series with KARPAS-299 [6], in the series with SUPM2 [10], in the series with SUPM2 [15], in the series on SUPM2 [18] and with KARPAS-299 [19] was Active. Besides, the inhibition in series [7], in [11], in [16] and in series [20] was greater than 90% in each case. Besides, the Activity with KARPAS-299 [12] is given as 80%. The Tmax in series [13] worked out at 4 h. The molecule also had a half-life in series [14] of less than 24 h.

For `CN1CCN(c2ccc(-c3ccc4[nH]c5nccc(C#Cc6ccccc6)c5c4c3)cc2)CC1`, the IC50 in the series on BaF3 [1] amounted to 4.4 µM; in the series with BaF3 [2], 2.7 µM; in the series with BaF3 [3] it was 3.7 µM.

Consider `CN1CCN(c2ccc(-c3ccc4[nH]c5nccc(-c6ccc(C(=O)c7ccccc7)cc6)c5c4c3)cc2)CC1`, for which the IC50 in the series with BaF3 [1] worked out at 18 µM; with BaF3 [2] it was 1.7 µM; in the series with BaF3 [3], 6.1 µM.

`CN1CCN(c2ccc(-c3ccc4[nH]c5nccc(N6CCC(Cc7ccccc7)CC6)c5c4c3)cc2)CC1`: the IC50 in the series with BaF3 [1] came out at 3.3 µM; in the series with BaF3 [2] it was 0.6 µM; in the series with BaF3 [3] it was 1.2 µM.

As to `CN1CCN(c2ccc(-c3ccc4[nH]c5nccc(/C=C/c6ccccc6C(F)(F)F)c5c4c3)cc2)CC1`, the IC50 in the series with BaF3 [1] was 1.7 µM; with BaF3 [2], 0.9 µM; in the series with BaF3 [3], 1.5 µM.

A word on the IC50: it is the concentration that inhibits the measured activity by half. What is called inhibition is the percentage by which the read-out fell short of the control. What is called Tmax is the time from dosing to the highest level. As a reminder, the half-life is the time needed for the level to fall by half in the phase considered.

For the origin of these results see ChEMBL document CHEMBL5137040, “Identification of non-ATP-competitive α-carboline inhibitors of the anaplastic lymphoma kinase” (Eur J Med Chem, 2022).
